Measured values reported in patent US20120207763A1, “PYRROLOPYRIMIDINE COMPOUNDS AND THEIR USES” (ASTEX THERAPEUTICS LIMITED, priority 2006, published 2012).
pIC50: −log10 of the molar value. Like-named read-outs stand apart in the source and are kept apart here.

Assays:
Type in all cases: biochemical
[1] = biological target: CDK4/Cyclin-D1 kinase complex (Homo sapiens, UniProt P11802); assay: CDK4 ELISA based assay, Rb Ser780 phosphorylation
Excerpt: The compounds that inhibit the CDK4 kinase activity would inhibit the signal output of the assay.

[2] = biological target: CDK2/Cyclin-A kinase complex (Homo sapiens, UniProt P24941); assay: CDK2 IMAP fluorescence polarization assay
In short: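 Fluorescence polarization (IMAP) using purified active CDK2/Cyclin-A complex with a TAMRA-tagged Histone H1-derived peptide substrate; phosphorylated peptide bound by a metal-containing reagent raises polarization. Inhibition read as reduced fluorescence polarization signal.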

CDK4 = CDK4 (Homo sapiens, UniProt P11802); assay: CDK4 HTRF assay; conditions: Table E; read-out: CDK4 HTRF/IC50 [umol l − 1]
hCDK1/B = hCDK1/B (Homo sapiens, UniProt P06493); assay: hCDK1/B assay; conditions: Table E; read-out: hCDK1/B/IC50 [umol l − 1]
[3] = Table E, read-out: CDK4 ELISA assay IC50 [umol l−]
[4] = Table E, read-out: CDK2cyA IMAP/IC50 [umol l − 1]

hCDK1/B, sequence (P06493 whole entry): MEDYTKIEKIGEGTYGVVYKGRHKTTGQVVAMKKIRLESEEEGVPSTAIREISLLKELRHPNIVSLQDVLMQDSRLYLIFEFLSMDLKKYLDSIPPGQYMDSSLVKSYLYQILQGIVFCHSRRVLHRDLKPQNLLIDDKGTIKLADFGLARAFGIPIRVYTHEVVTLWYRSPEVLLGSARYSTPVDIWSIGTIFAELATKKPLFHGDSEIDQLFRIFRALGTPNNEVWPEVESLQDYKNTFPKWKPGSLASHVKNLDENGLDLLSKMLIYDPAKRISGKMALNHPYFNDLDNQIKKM
hCDK1/B, sequence (P14635 whole entry partner): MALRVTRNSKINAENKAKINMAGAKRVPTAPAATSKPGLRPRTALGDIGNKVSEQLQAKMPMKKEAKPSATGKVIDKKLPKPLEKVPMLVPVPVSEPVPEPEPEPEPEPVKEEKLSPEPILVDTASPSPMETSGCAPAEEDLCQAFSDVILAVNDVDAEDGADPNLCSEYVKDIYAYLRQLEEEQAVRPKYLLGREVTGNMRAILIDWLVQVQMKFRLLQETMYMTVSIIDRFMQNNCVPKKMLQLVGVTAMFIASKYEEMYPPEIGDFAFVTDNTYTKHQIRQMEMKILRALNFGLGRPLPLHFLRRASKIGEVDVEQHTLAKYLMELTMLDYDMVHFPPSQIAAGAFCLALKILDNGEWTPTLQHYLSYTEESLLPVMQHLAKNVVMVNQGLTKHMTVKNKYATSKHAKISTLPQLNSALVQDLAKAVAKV
CDK4, sequence (P11802 whole entry): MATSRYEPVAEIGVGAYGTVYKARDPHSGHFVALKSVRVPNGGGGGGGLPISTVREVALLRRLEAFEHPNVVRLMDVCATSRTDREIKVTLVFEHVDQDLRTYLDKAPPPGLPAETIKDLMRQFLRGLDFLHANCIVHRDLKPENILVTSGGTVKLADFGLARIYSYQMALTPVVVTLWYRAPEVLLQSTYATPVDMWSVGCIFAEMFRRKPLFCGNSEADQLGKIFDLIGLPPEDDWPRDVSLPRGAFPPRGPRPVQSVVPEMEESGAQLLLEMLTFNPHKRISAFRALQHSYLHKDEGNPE
CDK4, sequence (P24385 whole entry partner): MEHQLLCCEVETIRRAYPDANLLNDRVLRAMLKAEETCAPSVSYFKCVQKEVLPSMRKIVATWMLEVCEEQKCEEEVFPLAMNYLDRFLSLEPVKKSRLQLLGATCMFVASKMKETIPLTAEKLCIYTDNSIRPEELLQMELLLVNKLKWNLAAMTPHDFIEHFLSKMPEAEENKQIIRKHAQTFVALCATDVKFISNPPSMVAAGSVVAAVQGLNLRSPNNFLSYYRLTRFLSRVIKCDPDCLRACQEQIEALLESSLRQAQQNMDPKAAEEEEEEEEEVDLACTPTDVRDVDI
CDK4/Cyclin-D1 kinase complex, sequence (P11802 whole entry): as the sequence (P11802 whole entry) above
CDK4/Cyclin-D1 kinase complex, sequence (P24385 whole entry partner): as the sequence (P24385 whole entry partner) above

SMILES	pIC50 [1, 3]	pIC50 [2, 4]	pIC50 ([1]; Table C, read-out: CDK4 IC50)	pIC50 ([2]; Table C, read-out: CDK2 IC50)	pIC50 (CDK4)	pIC50 (hCDK1/B)
CCC(CC)n1cc(C)c2cnc(Nc3ccc(C(=O)NC4CCCC4)cc3)nc21 [Example 319]	< 5.00	–	–	–	–	–
CCC(CC)n1c(C)cc2cnc(Nc3ccc(C(=O)NC4CCCC4)cc3)nc21 [Example 331]	< 5.00	> 6.00	–	–	–	–
CCC(CC)n1ccc2cnc(Nc3ccc(C4CCCN(C(=O)CC#N)C4)cc3)nc21 (stereo not drawn) [Example 215]	< 5.00	–	–	–	–	–
CCC(CC)n1ccc2cnc(Nc3ccc(N4CCN(C)CC4)c(F)c3)nc21 [Example 208]	> 5.00	> 5.00	–	–	–	–
CN1CCN(c2ccc(Nc3ncc4ccn(C5CCCC5)c4n3)nc2)CC1 [Example 255]	< 5.00	< 5.00	–	–	–	–
CCC(CC)n1cc(C)c2cnc(Nc3ccc(N4CCN(C)CC4)cc3)nc21 [Example 264]	< 5.00	< 5.00	–	–	–	–
Cc1cn(C2CCCC2)c2nc(Nc3ccc(N4CCNCC4)cc3)ncc12 [drawing 150]	–	–	> 5.00	–	–	–
CCC(CC)N1C(=O)C(C)(C)c2cnc(Nc3ccc(N4CCNCC4)cn3)nc21	–	–	> 5.00	< 5.00	–	–
CCC(CC)n1c(COC)cc2cnc(Nc3ccc(C(=O)NC4CCCC4)cc3)nc21 [Example 380]	< 5.00	–	–	–	–	–
CCC(CC)n1ccc2cnc(Nc3ccc(C(=O)NC4CCCC4)cc3)nc21 [Example 217]	< 5.00	–	–	–	–	–
CCC(CC)N1C(=O)C(C)(C)c2cnc(Nc3ccc(N4CCN(C(C)=O)CC4)cn3)nc21	–	–	< 5.00	< 5.00	–	–
CCC(CC)n1ccc2cnc(NC3CCCC3)nc21 [Example 210]	< 5.00	–	–	–	–	–
CCC(CC)n1ccc2cnc(Nc3ccc(C4CCN(C(C)=O)CC4)cc3)nc21 [Example 214]	> 5.00	< 5.00	–	–	–	–
CCOC(OCC)c1cc2cnc(Nc3ccc(N4CCN(C(C)=O)CC4)cc3)nc2n1C(CC)CC [Example 360, 1-(4-{4-[6-Diethoxymethyl-7-(1-ethyl-propyl)-7H-pyrrolo[2,3-d]pyrimidin-2-ylamino]-phenyl}-piperazin-1-yl)-ethanone]	< 5.00	< 5.00	–	–	–	–
Cc1cn(C2CCCC2)c2nc(Nc3ccc4[nH]c(=O)[nH]c4c3)ncc12 [Example 279]	–	> 5.00	–	–	> 6.00	> 5.00
CCC(CC)n1cc(C)c2cnc(Nc3ccc(N4CCN(C(C)=O)CC4)cc3)nc21 [Example 263, 1-(4-{4-[7-(1-Ethyl-propyl)-5-methyl-7H-pyrrolo[2,3-d]pyrimidin-2-ylamino]-phenyl}-piperazin-1-yl)-ethanone]	< 5.00	< 5.00	–	–	–	–
CCC(CC)n1ccc2cnc(Nc3cccc(OCCn4ccnc4)c3)nc21 [Example 213]	> 5.00	> 6.00	–	–	–	–
CC(=O)N1CCN(c2ccc(Nc3ncc4ccn(C5CCC(C)C5)c4n3)cc2)CC1 (stereo not drawn) [Example 238]	–	> 5.00	–	–	> 6.00	> 5.00
Cc1c(-c2cnco2)n(C2CCCC2)c2nc(Nc3ccc(N4CCNCC4)cc3)ncc12 [Example 398]	–	> 6.00	–	–	> 6.00	> 6.00

SMILES	pIC50 [1, 3]	pIC50 [2, 4]	pIC50 ([1]; Table C, read-out: CDK4 IC50)	pIC50 ([2]; Table C, read-out: CDK2 IC50)	pIC50 (CDK4)	pIC50 (hCDK1/B)
OC[C@@H]1CCC(n2ccc3cnc(Nc4ccc(N5CCNCC5)cc4)nc32)C1 (stereo partly drawn) [Example 250]	–	> 6.00	–	–	> 6.00	> 6.00
Cc1cn(C2CCC(O)C2)c2nc(Nc3ccc(CN4CCOCC4)cc3)ncc12 (stereo not drawn) [Example 315]	–	> 6.00	–	–	> 6.00	> 5.00
CCC(CC)n1c(C)cc2cnc(Nc3ccc(N4CCN(C(C)=O)CC4)cc3)nc21 [Example 330]	< 5.00	> 6.00	–	–	–	–
CC1(C)C(=O)N(C2CCCC2)c2nc(Nc3ccc(N4CCNCC4)cn3)ncc21	–	–	> 5.00	–	–	–
CCC(CC)n1c(C(=O)Nc2cccc(C(F)(F)F)c2)cc2cnc(Nc3ccc(N4CCNCC4)cc3)nc21 [Example 350]	–	< 4.82	–	–	> 6.00	< 5.00
Cc1c(C(N)=O)n(C2CCCC2)c2nc(Nc3ccc(N4CCNCC4)cn3)ncc12 [Example 391]	–	< 5.00	–	–	> 6.00	< 5.00
Cc1cn(C2CCCC2)c2nc(Nc3ccc(CN4CCNC(=O)C4)cc3)ncc12 [Example 290]	–	> 5.00	–	–	> 6.00	> 5.00
CCC(CC)n1c(C(=O)Nc2cc[nH]n2)cc2cnc(Nc3ccc(N4CCNCC4)cc3)nc21 [Example 356]	–	> 5.00	–	–	> 6.00	> 5.00
CCC(CC)n1c(C(=O)Nc2ccncc2)cc2cnc(Nc3ccc(N4CCNCC4)cc3)nc21 [Example 353]	–	< 4.82	–	–	> 6.00	< 4.82
CCC(CC)n1c(CNCCc2cc3ccccc3[nH]2)cc2cnc(Nc3ccc(N4CCN(C(C)=O)CC4)cc3)nc21 [Example 368]	–	> 6.00	–	–	> 6.00	> 5.00
CCC(CC)n1c(C(=O)Nc2ccc(OC)cc2)cc2cnc(Nc3ccc(N4CCNCC4)cc3)nc21 [Example 347]	–	< 5.00	–	–	> 6.00	< 5.00
CCC(CC)n1c(C)cc2cnc(Nc3ccc(N4CCNCC4)cc3)nc21 [Example 329, [7-(1-Ethyl-propyl)-6-methyl-7H-pyrrolo[2,3-d]pyrimidin-2-yl]-(4-piperazin-1-yl-phenyl)-amine]	< 5.00	> 6.00	–	–	–	–
CCC(CC)n1ccc2cnc(Nc3ccc(C4CCCN(C(C)=O)C4)cc3)nc21 (stereo not drawn) [Example 216]	> 5.00	> 5.00	–	–	–	–
Cc1c(-c2cnco2)n(C2CCCC2)c2nc(Nc3ccc(CN4CCNCC4)cc3)ncc12 [Example 402]	–	> 6.00	–	–	> 6.00	> 6.00
CCC(CC)N1C(=O)C(C)(C)c2cnc(Nc3ccc(N4CCNCC4)cc3)nc21 [drawing 162]	–	–	> 5.00	–	–	–
CCC(CC)n1cc(C(=O)OC)c2cnc(Nc3ccc(N4CCN(C(C)=O)CC4)cc3)nc21 [Example 428]	< 5.00	–	–	–	–	–
CN(C)C(=O)c1cc2cnc(NCc3ccc(N4CCN(C(=O)OC(C)(C)C)CC4)cc3)nc2n1C1CCCC1 [Example 468]	–	< 4.82	–	–	< 5.00	< 4.82
Cc1nnc(-c2c(C)c3cnc(Nc4ccc(N5CCNCC5)cn4)nc3n2C2CCCC2)o1 [Example 386, [7-Cyclopentyl-5-methyl-6-(5-methyl-[1,3,4]oxadiazol-2-yl)-7H-pyrrolo[2,3d]pyrimidin-2-yl]-(5-piperazin-1-yl-pyridin-2-yl)-amine]	–	> 5.00	–	–	> 6.00	> 5.00
Cc1cn(C2CCCC2)c2nc(Nc3nccc4ccccc34)ncc12 [Example 303]	–	< 5.00	–	–	< 5.00	< 5.00

SMILES	pIC50 [1, 3]	pIC50 [2, 4]	pIC50 ([1]; Table C, read-out: CDK4 IC50)	pIC50 ([2]; Table C, read-out: CDK2 IC50)	pIC50 (CDK4)	pIC50 (hCDK1/B)
Cc1cn(C2CCC(O)C2)c2nc(Nc3ccc(CN4CCNCC4)cc3)ncc12 (stereo not drawn) [Example 316]	–	> 6.00	–	–	> 6.00	> 5.00
Cc1cn(C2CCCC2)c2nc(Nc3ccc(CCN4CCOCC4)cc3)ncc12 [Example 291]	–	< 5.00	–	–	> 6.00	> 5.00
CCC(CC)n1c(C(=O)Nc2ccccn2)cc2cnc(Nc3ccc(N4CCNCC4)cc3)nc21 [Example 351]	–	> 5.00	–	–	> 6.00	> 5.00
CCC(CC)N1C(=O)C(C)(C)c2cnc(Nc3ccc(N4CCN(C(=O)OC(C)(C)C)CC4)cc3)nc21	–	–	< 5.00	–	–	–
Cc1c(C#N)n(C2CCCC2)c2nc(Nc3ccc(N4CCC(N(C)C)CC4)cc3)ncc12 [Example 395]	–	> 6.00	–	–	> 6.00	> 6.00
CCC(CC)n1c(C(=O)N(C)C)cc2cnc(Nc3ccc(CN4CCNCC4)cc3)nc21 [Example 342]	–	> 5.00	–	–	> 6.00	> 5.00
CCC(CC)n1ccc2cnc(NC3CC3)nc21 [Example 218]	< 5.00	–	–	–	–	–
Cc1n[nH]c(-c2c(C)c3cnc(Nc4ccc(N5CCNCC5)cn4)nc3n2C2CCCC2)n1 [Example 406]	–	< 5.00	–	–	> 6.00	< 5.00
CCC(CC)n1c(C(=O)Nc2cccc(C(C)(C)C)c2)cc2cnc(Nc3ccc(N4CCNCC4)cc3)nc21 [Example 358]	–	< 4.82	–	–	> 6.00	< 4.82
Cc1c(C#N)n(C2CCCC2)c2nc(Nc3ccc(N4CCC(N(C)C)CC4)cn3)ncc12 [Example 394]	–	< 5.00	–	–	> 6.00	< 4.82
CC1CCC(n2ccc3cnc(Nc4ccc(N5CCNCC5)cc4)nc32)C1 (stereo not drawn) [Example 239]	–	> 5.00	–	–	> 6.00	> 6.00
Cc1cn(C2CCCC2)c2nc(Nc3ccc(N4CCOCC4)cc3)ncc12 [Example 305]	–	> 5.00	–	–	< 5.00	> 5.00
CCC(C)n1c(C#N)c(C)c2cnc(Nc3ccc(N4CCC(N(C)C)CC4)cc3)nc21 (stereo not drawn) [Example 396]	–	> 6.00	–	–	> 6.00	> 6.00
CN(C)C(=O)c1cc2cnc(Nc3ccc(N4CCN(C(=O)OC(C)(C)C)CC4)cc3)nc2n1C1CCCC1 [Example 463]	–	> 5.00	–	–	> 6.00	> 5.00
CCC(CC)n1c(C(=O)Nc2cccc(F)c2)cc2cnc(Nc3ccc(N4CCNCC4)cc3)nc21 [Example 357]	–	> 5.00	–	–	> 6.00	> 5.00
Cc1cn(C2CCCC2)c2nc(Nc3ccc(N4CCCCC4)nc3)ncc12 [Example 284]	–	< 4.82	–	–	< 5.00	< 4.82
CCC(CC)n1cc(C(=O)OC)c2cnc(Nc3ccc(N4CCNCC4)cc3)nc21 [Example 429]	< 5.00	–	–	–	–	–
CCN(CC)c1ccc(Nc2ncc3c(C)cn(C4CCCC4)c3n2)cc1 [Example 457]	–	< 5.00	–	–	< 5.00	< 5.00
CCC(CC)N1C(=O)Cc2cnc(Nc3ccc(N4CCNCC4)cc3)nc21	–	–	> 5.00	–	–	–
